Laboratory results taken from ChEMBL document CHEMBL1759964, “Structure-based virtual screening approach to the discovery of phosphoinositide 3-kinase alpha inhibitors” (Bioorg Med Chem Lett, 2011).

What follows are compounds tested against Phosphatidylinositol 4,5-bisphosphate 3-kinase catalytic subunit alpha isoform (Homo sapiens, UniProt P42336) (assay: Inhibition of PI3Kalpha).
Chain of Phosphatidylinositol 4,5-bisphosphate 3-kinase catalytic subunit alpha isoform (P42336 whole entry, canonical isoform): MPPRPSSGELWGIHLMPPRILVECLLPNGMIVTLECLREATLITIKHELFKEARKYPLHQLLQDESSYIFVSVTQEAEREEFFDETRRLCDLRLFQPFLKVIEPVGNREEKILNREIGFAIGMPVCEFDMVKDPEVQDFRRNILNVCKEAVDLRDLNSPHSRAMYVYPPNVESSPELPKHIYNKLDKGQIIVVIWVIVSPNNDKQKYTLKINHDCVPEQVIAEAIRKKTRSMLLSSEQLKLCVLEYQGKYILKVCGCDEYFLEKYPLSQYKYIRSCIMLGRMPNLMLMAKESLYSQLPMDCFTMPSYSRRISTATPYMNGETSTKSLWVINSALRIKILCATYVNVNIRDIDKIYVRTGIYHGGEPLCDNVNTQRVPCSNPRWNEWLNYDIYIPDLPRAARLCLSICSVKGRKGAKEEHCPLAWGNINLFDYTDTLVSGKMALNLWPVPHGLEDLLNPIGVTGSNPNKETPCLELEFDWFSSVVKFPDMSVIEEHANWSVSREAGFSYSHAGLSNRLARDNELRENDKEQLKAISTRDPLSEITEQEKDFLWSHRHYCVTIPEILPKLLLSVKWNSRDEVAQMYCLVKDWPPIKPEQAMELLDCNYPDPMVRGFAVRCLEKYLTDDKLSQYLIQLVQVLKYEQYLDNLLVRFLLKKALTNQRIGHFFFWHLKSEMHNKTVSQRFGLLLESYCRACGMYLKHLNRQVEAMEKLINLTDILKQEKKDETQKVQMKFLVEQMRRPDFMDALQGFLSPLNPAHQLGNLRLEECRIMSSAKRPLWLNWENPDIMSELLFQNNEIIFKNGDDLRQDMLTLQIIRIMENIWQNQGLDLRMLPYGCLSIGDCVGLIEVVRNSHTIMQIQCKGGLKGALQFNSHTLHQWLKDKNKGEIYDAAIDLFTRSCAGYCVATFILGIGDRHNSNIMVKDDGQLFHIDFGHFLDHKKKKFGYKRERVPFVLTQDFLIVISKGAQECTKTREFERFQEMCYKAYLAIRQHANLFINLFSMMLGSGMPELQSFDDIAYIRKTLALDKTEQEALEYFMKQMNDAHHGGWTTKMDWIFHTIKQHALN

| SMILES | IC50 [µM] |
| --- | --- |
| Cc1ccc(OCC(=O)Nc2ccc(-c3nnc(-c4ccco4)o3)cc2)cc1 | 40 |
| Cc1cccc(NC(=O)c2ccc(Cn3cnc4ccccc4c3=O)o2)n1 | 28 |
| Cc1nc(N/C(N)=N/C(=O)c2ccccc2N)nc2ccccc12 | 23 |
| CCOc1ccc2nc3cc(/N=C/c4ccco4)ccc3c(N)c2c1 | 40 |
